Key:
[1] = Molar extinction coefficient of curcumin analogs (UV-visible); format: physicochemical; conditions: in M-1 cm-1 (unit assumed)
Text: Each curcumin derivative is bioconjugated to create a biopolymer that can be used as an eco-friendly dye. For example, compounds 1b and 1d can be conveniently conjugated to the lysine residues of proteins, the azide and the alkyne derivatives can be attached to proteins via the ‘click’ bioconjugation reaction. Compounds 1c and 1e have the advantage that unlike most reactive groups which are used for bioconjugation, alkyne and azide groups are stable in aqueous media (Scheme 5). The absorbance and fluorescence properties of these dyes are similar to the parent molecule.
Reagent-grade solvents such as acetone and tetrahydrofuran were used without further purification. For High Performance Liquid Chromatography (HPLC), methylene chloride was used with Pure Solv™ solvent purification system. Curcumin was obtained from Acros-Organics. Copper acetate and sodium ascorbate were purchased from Sigma. Silica gel 60 F 254 plates for thin-layer chromatography (TLC) were purchased from Merck. Column chromatographic separations were carried out using silica gel (Fisher) with a particle size of 0.040-0.063 mm. Nuclear magnetic resonance (NMR) was recorded on Bruker Avance 600 (600 MHz) spectrometers. Mass spectra (ES-MS) were recorded on a LC/MS and Time Of Flight (TOF) mass spectrometer. U.V.-Visible spectra were recorded using a ChemStation Rev. A.10.01 from Agilent Technologies

[2] = test system: Oligodendroglioma cells; assay: Apoptosis of Oligodendroglioma cells (DAPI staining); format: cell-based; conditions: 50 micro molar
Protocol: The small molecule curcumin analogs including curcumin dimers, curcumin polymers and curcumin modified polymers, typical examples shown in Schemes 1-6 of the present invention can be used for the treatment of cancer. […] Oligodendroglioma cells were treated with 50 micro molar concentration of curcumin and asymmetric curcumin dimer stained with DAPPI presented.
Very limited cell death is seen in human fibroblasts, which serve as a benign control cell line. The percentage of apoptosis is lower at higher concentrations (100 μM and more) as compared to that at 20 μM and 50 μM for all the compounds including curcumin because at higher concentration curcumin and analogs of the invention cause HOG cell necrosis. This alternate pathway of cell killing has been established via DNA laddering studies.

[3] = test system: amyloid plaques; conditions: cited from earlier work
[4] = human subjects, doses as high as 8 g of curcumin per day; cited from earlier work
[5] = unmodified curcumin, background statement; cited from earlier work

C#CCOc1ccc(C=CC(=O)CC(=O)C=Cc2ccc(O)c(OC)c2)cc1OC [Compound 5, Mono-Propargyl Curcumin]
Molar Extinction Coeffecient [1]: 29510

COc1cc(/C=C\C(=O)CC(=O)/C=C\c2ccc(OC(=O)CCCC(=O)NCCOCCOCCOCCOCCOCCOCCN=[N+]=[N-])c(OC)c2)ccc1O [Compound 4, Mono-2-(2-(2-(2-(2-(2-(2-azidoethoxy)ethoxy)ethoxy)ethoxy)ethoxy)ethoxy)ethylcarbamoyl butanoate-Curcumin]
Molar Extinction Coeffecient [1]: 26764

(2-(2-(2-(2-(2-(2-(2-(4-methylene)-1H-1,2,3-triazol-1-yl)ethoxy)ethoxy)ethoxy)ethoxy)ethoxy)ethoxy)ethylcarbamoyl butanoate curcumin dimer [Compound 7]
apoptosis characterized by nuclear condensation (DAPI staining) [2]: Extensive apoptosis
induction of apoptosis relative to parent compound curcumin [2]: superior in inducing apoptosis

COc1cc(/C=C\C(=O)CC(=O)/C=C\c2ccc(O)c(OC)c2)ccc1O [Curcumin, (1Z,6Z)-1,7-bis(4-hydroxy-3-methoxyphenyl)hepta-1,6-diene 3,5-dione]
amyloid levels and plaque burden ([3]; fed to mice with advanced amyloid accumulation): reduced amyloid levels and plaque burden
blood-brain barrier crossing and plaque binding ([3]; injected, transgenic mouse model): crosses the blood-brain barrier and binds amyloid plaques
average peak serum concentration [4]: 652.5 ng/mL
water and plasma solubility [5]: poor water and plasma solubility
Molar Extinction Coeffecient [1]: 50,000

From patent US9447023B2, “Curcumin and tetrahydrocurcumin derivatives” (Research Foundation of the City University of New York, priority 2006, dated 2016)
